According to patent US20160295854A1, “COMPOSITION AND METHOD FOR EX-VIVO IMMUNOMODULATION AND/OR PRESERVATION OF ORGANS, METHODS AND USE” (UNIAO BRASILEIRA DE EDUCACAO E ASSISTENCIA , MANTENEDORA DA …, priority 2014, published 2016):

Columns and labels:
STAT3 = test: p-STAT3 intracellular marking in BMDCs; assay type: cell-based, mice (Mus musculus); conditions: BMDCs, 30 μM inhibitor previous to Hsp70
Procedure: As positive control, the cells were stimulated with […] of phorbol myristate acetate (PMA) for 30 minutes. After the stimuli in the periods mentioned, the cells were fixed with Cytofix Buffer (BD Biosciences) for 10 minutes at 37° C. and permeated with Phosflow Perm Buffer III (BD Biosciences) for 30 minutes on ice. After such procedures, the cells were marked for p-ERK1/2 and p-STAT3.
For analyzing the recipients T cells, the cells were marked for CD4 (GK1.5), CD8a (53-6.7), Foxp3 (MF23), Ki67 (B56) achieved from BD Biosciences. […] The levels of phosphorylated ERK and STAT3 were determined using antibodies for p-ERK1/2 and p-STAT3 (BD Biosciences) in BMDCs previously fixed and permeablized. The cells were subsequently analyzed in the flow cytometer FACSCanto II (BD Biosciences) with the BD FACSDiva (BD Biosciences) program. The data achieved were analyzed with the Flowjo program (version 7.6.5, Tree Star).
The p-ERK expression was measured by flow cytometry. […] The p-STAT3 expression was measured by flow cytometry. […] After that, the IL-10 mRNA levels were measured by Real-time PCR and the concentration of this cytokine by flow cytometry, using the kit CBA Mouse Inflammation. […] After that, the MARCH-I mRNA levels were analyzed by Real-time PCR. […]

splenocytes = test: Epitopes mapping of T cells (splenocytes re-stimulated in vitro); assay type: cell-based, BALB/c mice; conditions: 5 μg/ml peptide or 60 μg/ml Hsp70, 24 h; for CD4+Foxp3+ (Tregs) cells percentage (FIG. 16 A): compared with DMSO
[1] = system: cutaneous allograft (B6 donor skin in BALB/c recipients); test: Murine model of cutaneous allograft, graft immersion-treatment; assay type: in vivo, mice (Mus musculus)
Source text: A method for treating grafts, including allografts, was developed by the inventors of the present invention. Thus, the method treats the grafts (that may be full organs) instead of recipient that will receive the graft, using as tool a classic murine model of skin transplantation and well established. Such method, to the light of the inventors, may be considered as new and inventive. The said model consists of a complete incompatibility of MHC molecules and was described by BILLINGHAM & MEDAWAR (1951).
BALB/c recipients, which express the MHC II I-A^d molecule, are anaesthetized and the dorsal stem hairs are removed. In the waxed area, 1 cm^2 of the skin was removed in each recipient mouse and the donor tail skin was sutured in the exposed area. The animals are maintained in individual cages and daily monitored. The graft rejection is confirmed by observing the cyanosis, erythema, erosion and cutaneous graft loss.
This model consists of a complete incompatibility of MHC molecules and was described by BILLINGHAM & MEDAWAR (1951). In this model, the donor mouse B6, which expresses the MHC II I-A^b molecule, is sacrificed. […] After this period, the grafts were sutured in the BALB/c recipients' back, who express the MHC II I-A^d molecule, and the rejection clinical progression is daily monitored.
After that, the grafts were sutured in the BALB/c (I-Ad) animals' back. The animals were daily monitored. ***, p<0.0001. n=22-24 mice per group. The results achieved putting the seven independent experiments together.
After this, these grafts were sutured in BALB/c recipients WT and their rejection were daily monitored.
After this, the grafts were sutured in the BALB/c (I-Ad) animals' back. The animals were daily monitored. *, p<0.05. n=4 mice per group.

[2] = system: cutaneous allograft (B6 donor skin in BALB/c recipients); test: Cutaneous allograft model, graft immersion followed by topic application; assay type: in vivo, mice (Mus musculus); conditions: immersion plus 7 days of topic application (group '- 7 days')
Source text: That is, animals that received grafts treated with Hsp70 receive the local application of a Hsp70 solution and the same for OVA.
After this, the grafts were sutured in BALB/c (I-A^d) animals' back. […] The animals were daily monitored. (A) Schematic representation of the treatment strategy used in the experiment. (B) Photographic record of the clinical progression of the acute rejection in groups Hsp70 and OVA. […] Data achieved from previous experiments.

MARCH-I = MARCH-I mRNA in DCs by real time PCR; assay type: cell-based, mice (Mus musculus); conditions: DCs from IL-10 knockout animals, 24 h; compared with DCs WT
Procedure: The supernatants were collected and used for analyzing cytokine. The cells were further treated with 20 ng/ml of Rapamycin (Cell Signaling), 1 μg/ml of Cyclosporine A (Roche) or 20 ng/ml of IL-10 recombinant murine (R&D System) for 24 h and the total RNA was removed.
The total RNA was isolated from the DCs treated using the kit RNAeasy (Qiagen), according to the manufacturer instructions. The total purified RNA concentration was determined with the kit Qubit® RNA Assay Kit (Invitrogen), read in the Qubit® Fluorometer (Invitrogen). 50 ng of the RNA had reverse transcriptase with 100 U of Sensiscript (Qiagen). DNA concentrations were determined with the kit Qubit® dsDNA HS Assay (Invitrogen), read in the Qubit® Fluorometer (Invitrogen). In a final volume of 10 μL, 8 ng of cDNA were applied using some assays Taqman® Gene Expression (Applied Biosystems): IL10 (Mm00439614_m1), March1 (Mm00613524_m1) and β-actin (4352933E), according to the manufacturer recommendations.
The quantitative real time PCR was performed in the instrument StepOne™ Real-Time PCR System (Applied Biosystems). The relative levels of mRNA were calculated according to the comparative method of Ct, described by […] & LIVAK (2008). The β-actin constituent gene was used as setter. Non-treated DCs served as reference for OVA or Hsp70-treated DCs.
After that, IL-10 mRNA levels were analyzed by Real-time PCR. The β-actin was used as a setter. The IL-10 concentration was measured in the cultures supernatant by flow cytometry. […] (C) As in A, however the MARCH-I mRNA levels were analyzed by Real-time PCR. […] DCs IL-10 KO were also treated with Recombinant IL-10. All treatments were performed for 24 h and MARCH-I mRNA levels were analyzed by Real-time PCR. […] After this period, grafts were sutured in the BALB/c animals' back and the acceptance was daily monitored. Graphs expressed on average ±SEM. *, p<0.05; **, p<0.01; ***, […]. n=3-5 mice per group. Representative results of 3 independent experiments.
After this period, the MARCH-I expression increase was analyzed by Real-time PCR.

## COc1cccc(-c2cc(=O)c3ccccc3o2)c1N [PD98059, reference compound]
STAT3
  STAT3 activation against the stimulus with Hsp70 after ERK inhibition (FIG. 13 E): removed the STAT3 activation

## KYTAPEISARILMKL (Heat Shock Protein HSP70) [Peptide 5]
splenocytes
  CD4+Foxp3+ (Tregs) cells percentage (FIG. 16 A): increase in the Tregs production

## VGGSTRMPAVTDLVK [Peptide 2]
[1]; 60 μg/ml Hsp70 or 15 μg/ml peptide, 60 minutes at 4° C., compared to OVA peptide and peptide 5
  graft acceptance after immersion with Hsp70 or peptides (FIG. 17): strong tendency in lengthen the graft acceptance
splenocytes
  IL-10 production by splenocytes (FIG. 16 B): small increase
  CD4+Foxp3+ (Tregs) cells percentage (FIG. 16 A): quite significant increase

B1: OVA: egg albumin (OVA), control protein (protein, UniProt P01012 2-386, looked up)
Ovalbumin: GSIGAASMEFCFDVFKELKVHHANENIFYCPIAIMSALAMVYLGAKDSTRTQINKVVRFDKLPGFGDSIEAQCGTSVNVHSSLRDILNQITKPNDVYSFSLASRLYAEERYPILPEYLQCVKELYRGGLEPINFQTAADQARELINSWVESQTNGIIRNVLQPSSVDSQTAMVLVNAIVFKGLWEKAFKDEDTQAMPFRVTEQESKPVQMMYQIGLFRVASMASEKMKILELPFASGTMSMLVLLPDEVSGLEQLESIINFEKLTEWTSSNVMEERKIKVYLPRMKMEEKYNLTSVLMAMGITDVFSSSANLSGISSAESLKISQAVHAAHAEINEAGREVVGSAEAGVDAASVSEEFRADHPFLFCIKHIATNAVLFFGRCVSP
[1]; graft immersed in 60 μg/mL for 60 minutes, seven independent experiments
  Survival average: 14.0 days
[2]
  Survival median: 14.0 days
[2]; individual mice
  Survival: 16 days

B2: recombinant murine IL-10: IL-10 recombinant murine (R&D System), positive control (protein, UniProt P18893 19-178, looked up)
Interleukin-10: SRGQYSREDNNCTHFPVGQSHMLLELRTAFSQVKTFFQTKDQLDNILLTDSLMQDFKGYLGCQALSEMIQFYLVEVMPQAEKHGPEIKEHLNSLGEKLKTLRMRLRRCHRFLPCENKSKAVEQVKSDFNKLQDQGVYKAMNEFDIFINCIEAYMMIKMKS
MARCH-I
  MARCH-I mRNA levels in DCs IL-10 KO (FIG. 11 D): reestablished partially
